From PubChem BioAssay (NCI)
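Cultured in 96-well plates, cells were exposed to test compound for 48 hours across five concentrations. TGI: total growth inhibition.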

Experiments:
Test in all cases: NCI-60 cell line screen, 48 h
[1] = test system: PC-3 prostate
[2] = test system: SK-MEL-28 melanoma
[3] = test system: 786-0 renal
[4] = test system: UACC-62 melanoma
[5] = test system: SR leukemia
[6] = test system: HCT-116 colon
[7] = test system: U251 CNS
[8] = test system: HS 578T breast
[9] = test system: T-47D breast
[10] = test system: IGROV1 ovarian
[11] = test system: HCC-2998 colon
[12] = test system: UO-31 renal
[13] = test system: SK-OV-3 ovarian
[14] = test system: COLO 205 colon
[15] = test system: MCF7 breast
[16] = test system: NCI/ADR-RES ovarian
[17] = test system: KM12 colon
[18] = test system: MOLT-4 leukemia
[19] = test system: SN12C renal
[20] = test system: NCI-H460 lung
[21] = test system: HL-60(TB) leukemia
[22] = test system: OVCAR-3 ovarian
[23] = test system: CAKI-1 renal
[24] = test system: LOX IMVI melanoma
[25] = test system: SW-620 colon
[26] = test system: SNB-19 CNS
[27] = test system: TK-10 renal
[28] = test system: MDA-N
[29] = test system: HOP-62 NSCLC
[30] = test system: M14 melanoma
[31] = test system: SF-539 CNS
[32] = test system: A498 renal
[33] = test system: OVCAR-5 ovarian
[34] = test system: SK-MEL-2 melanoma
[35] = test system: EKVX NSCLC
[36] = test system: SF-268 CNS
[37] = test system: SK-MEL-5 melanoma
[38] = test system: ACHN renal
[39] = test system: HT29 colon
[40] = test system: MALME-3M melanoma
[41] = test system: CCRF-CEM leukemia
[42] = test system: HOP-92 NSCLC
[43] = test system: MDA-MB-435
[44] = test system: OVCAR-8 ovarian
[45] = test system: K-562 leukemia
[46] = test system: NCI-H226 lung
[47] = test system: SNB-75 CNS
[48] = test system: UACC-257 melanoma
[49] = test system: OVCAR-4 ovarian
[50] = test system: RXF 393 renal
[51] = test system: MDA-MB-231 breast
[52] = test system: RPMI-8226 leukemia
[53] = test system: HCT-15 colon
[54] = test system: BT-549 breast
[55] = test system: DU-145 prostate
[56] = test system: NCI-H23 lung
[57] = test system: NCI-H522 lung
[58] = test system: SF-295 CNS
[59] = test system: A549 NSCLC

Q: For `NC(=O)CCSC(CC(=O)c1ccc(Cl)cc1)c1ccc(Cl)cc1` (stereo not drawn), which TGI [1] is on record?
A: > 100 µM

Q: What about the TGI [2] of the same compound?
A: > 100 µM

Q: What about the TGI [3] of the same compound?
A: > 100 µM

Q: And the TGI [4]?
A: 56 µM

Q: And the TGI [5]?
A: 22.9 µM

Q: What about the TGI [6] of the same compound?
A: 70.4 µM

Q: What about the TGI [7] of the same compound?
A: 34.5 µM

Q: What about the TGI [8] of the same compound?
A: > 100 µM

Q: And the TGI [9]?
A: 57.3 µM

Q: What about the TGI [10] of the same compound?
A: 34.8 µM

Q: And the TGI [11]?
A: 32.7 µM

Q: And the TGI [12]?
A: > 100 µM

Q: What about the TGI [13] of the same compound?
A: > 100 µM

Q: And the TGI [14]?
A: > 100 µM

Q: And the TGI [15]?
A: 47.4 µM

Q: And the TGI [16]?
A: 52.5 µM

Q: What about the TGI [17] of the same compound?
A: 19.6 µM

Q: And the TGI [18]?
A: 35.8 µM

Q: What about the TGI [19] of the same compound?
A: 83.2 µM

Q: What about the TGI [20] of the same compound?
A: > 100 µM

Q: And the TGI [21]?
A: 25.6 µM

Q: What about the TGI [22] of the same compound?
A: 40.6 µM

Q: And the TGI [23]?
A: 42.6 µM

Q: What about the TGI [24] of the same compound?
A: 25.5 µM

Q: And the TGI [25]?
A: 12.2 µM

Q: And the TGI [26]?
A: > 100 µM

Q: And the TGI [27]?
A: > 100 µM

Q: And the TGI [28]?
A: 59.8 µM

Q: What about the TGI [29] of the same compound?
A: 93.1 µM

Q: And the TGI [30]?
A: 83.3 µM

Q: And the TGI [31]?
A: 39.4 µM

Q: What about the TGI [32] of the same compound?
A: 97.8 µM

Q: What about the TGI [33] of the same compound?
A: > 100 µM

Q: What about the TGI [34] of the same compound?
A: 69.2 µM

Q: And the TGI [35]?
A: 93.7 µM

Q: And the TGI [36]?
A: 82.1 µM

Q: And the TGI [37]?
A: 42.9 µM

Q: What about the TGI [38] of the same compound?
A: > 100 µM

Q: What about the TGI [39] of the same compound?
A: > 100 µM

Q: What about the TGI [40] of the same compound?
A: 66.8 µM

Q: And the TGI [41]?
A: 8.11 µM

Q: And the TGI [42]?
A: 45.5 µM

Q: What about the TGI [43] of the same compound?
A: 39.9 µM

Q: And the TGI [44]?
A: 32.3 µM

Q: And the TGI [45]?
A: > 100 µM

Q: And the TGI [46]?
A: > 100 µM

Q: And the TGI [47]?
A: 90.7 µM

Q: And the TGI [48]?
A: > 100 µM

Q: What about the TGI [49] of the same compound?
A: 45.2 µM

Q: What about the TGI [50] of the same compound?
A: 32.6 µM

Q: What about the TGI [51] of the same compound?
A: > 100 µM

Q: And the TGI [52]?
A: 5.71 µM

Q: What about the TGI [53] of the same compound?
A: 31.5 µM

Q: What about the TGI [54] of the same compound?
A: 80 µM

Q: And the TGI [55]?
A: 85.4 µM

Q: And the TGI [56]?
A: > 100 µM

Q: What about the TGI [57] of the same compound?
A: 80.3 µM

Q: What about the TGI [58] of the same compound?
A: 78.1 µM

Q: What about the TGI [59] of the same compound?
A: > 100 µM

Q: What does the source list for `O=CN1CCC23CC(O)CCC2C1Cc1cc(Oc2nnnn2-c2ccccc2)cc(O)c13` (stereo not drawn)?
A: TGI [1]: > 100 µM; TGI [2]: > 100 µM; TGI [3]: > 100 µM; TGI [4]: > 100 µM; TGI [5]: > 100 µM; TGI [6]: > 100 µM; TGI [7]: > 100 µM; TGI [8]: > 100 µM; TGI [9]: > 100 µM; TGI [10]: > 100 µM; TGI [11]: > 100 µM; TGI [12]: > 100 µM; TGI [13]: > 100 µM; TGI [14]: > 100 µM; TGI [15]: > 100 µM; TGI [16]: > 100 µM; TGI [17]: > 100 µM; TGI [18]: > 100 µM; TGI [19]: > 100 µM; TGI [20]: > 100 µM; TGI [21]: > 100 µM; TGI [22]: > 100 µM; TGI [23]: > 100 µM; TGI [24]: > 100 µM; TGI [25]: > 100 µM; TGI [26]: > 100 µM; TGI [27]: > 100 µM; TGI [28]: > 100 µM; TGI [29]: > 100 µM; TGI [30]: > 100 µM; TGI [31]: > 100 µM; TGI [32]: > 100 µM; TGI [33]: > 100 µM; TGI [34]: > 100 µM; TGI [35]: > 100 µM; TGI [36]: > 100 µM; TGI [37]: > 100 µM; TGI [38]: > 100 µM; TGI [39]: > 100 µM; TGI [40]: > 100 µM; TGI [41]: > 100 µM; TGI [42]: > 100 µM; TGI [43]: > 100 µM; TGI [44]: > 100 µM; TGI [45]: > 100 µM; TGI [46]: > 100 µM; TGI [47]: > 100 µM; TGI [48]: > 100 µM; TGI [49]: > 100 µM; TGI [50]: > 100 µM; TGI [51]: > 100 µM; TGI [52]: > 100 µM; TGI [53]: > 100 µM; TGI [54]: > 100 µM; TGI [55]: > 100 µM; TGI [56]: > 100 µM; TGI [57]: > 100 µM; TGI [58]: > 100 µM; TGI [59]: > 100 µM
